Data reported in patent publication US7223733B2, “Modulation of TRIP-Br function and method of treating proliferative disorders” (National University of Singapore, priority 2004, dated 2007).
[invdT] = inverted (3'-3') thymidine

How the values were obtained:
[1] = system: hTRIP-Br2 mRNA; experiment: Semi-quantitative RT-PCR of intact hTRIP-Br2 transcripts in WI-38 cells; format: cell-based, human; conditions: WI-38, 0.1 μM, 16 h post-stimulation with 10% FBS
Description: (§1) DNA enzyme transfection. WI-38 cells were rendered quiescent by cultivation in serum-free medium for 72 h before being transfected with DNA enzyme (0.1 μM) using Superfect as reported previously (Santiago, F. S., et al. Nat Med 5, 1264-1269 (1999)) in accordance to manufacturer's recommendations (Qiagen).
(§2) Semi-quantitative RT-PCR. Following various treatments, WI-38 cells in 6-well culture dish were subjected to total RNA extraction using the TRIZOL® Reagent (Life Technologies). Total RNA (4 μg) was reversed transcribed using oligo-dT and M-MLV reverse transcriptase in a total reaction volume of 20 μl. Polymerase Chain Reactions (PCR) were carried out on 3 μl cDNA sample in the presence of […] deoxyribonucleotide triphosphates (dNTPs) and 40 μM of specific primer pairs in a total reaction volume of 50 μl. […] Post-PCR samples were analyzed by agarose gel electrophoresis.
(§3) FIG. 11: (A) hTRIP-Br1 and hTRIP-Br2 expression is serum-inducible. […] At 24 h post-serum re-stimulation, semi-quantitative RT-PCR analysis was performed on total RNA to assess hTRIP-Br1 and hTRIP-Br2 expression. β-actin was included as an internal control. […] Semi-quantitative RT-PCR analysis was performed on total RNA to assess hTRIP-Br1 and hTRIP-Br2 expression. β-actin was included as an internal control. […]

[2] = system: hTRIP-Br1 mRNA; experiment: Semi-quantitative RT-PCR of intact hTRIP-Br1 transcripts in WI-38 cells; format: cell-based, human; conditions: WI-38, 0.1 μM, 16 h post-stimulation with 10% FBS
Description: as §1, §2, §3

Substance	serum-inducible steady-state hTRIP-Br2 mRNA level [1]	serum-inducible steady-state hTRIP-Br1 mRNA level [2]
5′-T TACCCAACAGGCTAGCTACAACGAATATCACA-3′ (DNA TTACCCAACAGGCTAGCTACAACGAATATCACA; DNA, 3' [invdT], backbone not given here) [E-Br2]	efficiently down-regulated	
5′-T TGCTCAGCAGGCTAGCTACAACGACTTGCTCA-3′ (DNA TTGCTCAGCAGGCTAGCTACAACGACTTGCTCA; DNA, 3' [invdT], backbone not given here) [E-Br1]		efficiently down-regulated
